Assay results taken from US20220241314A1, “COMPOSITIONS AND METHODS FOR TREATMENT OF HEPATITIS B VIRUS INFECTION” (priority 2019, published 2022).
{ppp} = triphosphate

B1: poly-U/UC PAMP: ~100 nt PAMP motif from the HCV genome comprising 5′ppp and the poly U/UC region, recognized by RIG-I; formulated in liposome (nucleic acid)
chain: GGCCAUCCUGUUUUUUUCCCUUUUUUUUUUUCUUUUUUUUUUUUUUUUUUUUUUUUUUUUUUUUUUCUCCUUUUUUUUUCCUCUUUUUUUCCUUUUCUUUCCUUU
modifications: RNA, 5' {ppp}, backbone and methylation of C not given here; formulated in liposome
notes: ~100 nt PAMP motif from the HCV genome comprising 5′ppp and the poly U/UC region, recognized by RIG-I; formulated in liposome

How the values were obtained:
HBV cccDNA [1] = experiment: Subcellular compartment analysis of PF-RC DNA and cccDNA (synchronous infection, cell fractionation); type: cell-based, HBV (Genotype D); details: HepG2-hNTCP, treated from time 0 through 3 dpi; F7 10 μM, poly-U/UC PAMP 100 ng/ml
Protocol: FIG. 4A-4D illustrate subcellular compartment analysis of antiviral activity. (4A) and (4C) Scheme of HBV infection with F7 treatment (4A) or poly-U/UC PAMP treatment (4C). HepG2-hNTCP cultures were inoculated with HBV at moi 1000 Geq/cell for 24 hr. On treatment day 0 the cultures received F7 (10 μM) or poly-U/UC PAMP (100 ng/ml). Cells were harvested for production of Hirt extracts at each time point shown through three days. Parallel cultures were harvested for Western blot analysis to monitor Lamin B1 and Calnexin as markers of […] and cytosol respectively. (4B) and (4D) DNA was analyzed by Southern blot using HBV-specific DNA probe. Viral protein-free DNAs (protein-free Relaxed Circular DNA [PF-RC DNA]and cccDNA) are indicated. The positions of mass markers are indicated. Lower panels show Western blot of Lamin B1 and Calnexin abundance.
Cells were inoculated with HBV for 6 hours at 4° C., then the inoculum was removed, cells rinsed and placed in 37° C. media to initiate synchronous infection (time 0), at which time the cells were treated with F7 (FIG. 4A), or poly-U/UC PAMP (FIG. 4C) through 3 dpi. Whole cell (W), nuclear (N), and cytoplasmic (C) extracts were harvested over the time course, at 3 and 6 hours post-infection, and daily over 1-3 dpi, and PF-RC and cccDNA abundance were analyzed by Southern blot. […] For poly-U/UC PAMP treatment, cells were also harvested over a similar time course (see FIG. 4C).
HBV entry assay and cell fractionation: Cells were inoculated with HBV in presence of 4% PEG for 6 hours at 4°C. To assess HBV entry, inoculum was removed by washing with PBS that included proteinase K and cells were shifted to 37° C. post-attachment. After incubation and treatment, the cells were lysed in a hypotonic buffer (100 MM HEPES, 15 mM MgCl2, 100 mM KCL and Nonidet P-40), and homogenized with a dounce homogenizer. The cytoplasmic fraction was separated from nuclei pellet by centrifugation (6000×g for 5 min at 4° C.). Nuclei pellet was resuspended in extraction buffer (20 mM HEPES, 15 mM MgCl2, 420 mM NaCl, 0.2 mM EDTA and 25% (v/v) Glycerol including DTI and protease inhibitor cocktail). Each cellular fraction was mixed with 1% SDS (v/v) and protein-free DNA was extracted using the Hirt extraction method.

HBV cccDNA [2] = experiment: Decay kinetics of established cccDNA and HBsAg secretion under treatment from 3 dpi to 20 dpi; type: cell-based, HBV (Genotype D); details: HepG2-hNTCP; for production and secretion of HBsAg / cccDNA levels over treatment time course (Southern blot, qPCR): treatment from 3 dpi through 20 dpi; for cccDNA levels over treatment time course (Southern blot, qPCR) / delay before cccDNA starts decreasing (τ) / half-life of cccDNA (t1/2): ETV 500 nM, F7 10 μM, poly-U/UC 100 ng/ml; for delay before cccDNA starts decreasing (τ) / half-life of cccDNA (t1/2): treatment from 3 dpi, model fit of RT-qPCR data, three replicates
Protocol: (5A) HBV infection and treatment schedule. On day 0 HepG2-hNTCP cells were infected with HBV at moi of 1000 Geq/cell, incubated for 24 hr, and media was replaced. On day three the cells were harvested or treated with DMSO, ETV (500 nM), F7 (10 μM), poly-U/UC (100 ng/ml), or with ETC combination with F7 or poly-U/UC, PAMP. Cells were harvested at the indicated points over a 20-day time course. (5B), (5C) DNA was isolated by Hirt extract and subjected to Southern blot analysis using an HBV-specific DNA probe. Percentage values below each lane indicate the relative amount of cccDNA compared to day three control prior to each treatment. The positions of mass markers are indicated. (5D) cccDNA levels were measured by RT-qPCR. Relative cccDNA values to mitochondrial DNA (MT-CO3) are shown. Statistical significance was determined using Student's t test. Data are presented as mean standard deviation (SD), *P<0.01, **P<0.005, ***P<0.001 and ns=non-significant (E) Half-life of cccDNA from RT-qPCR analyses was estimated from the simultaneous fitting of three replicates under each treatment strategy. C(t) is the % values of cccDNA at time ‘t’ post-treatment, C(0) is the % values of cccDNA at the start of the treatment. (5F) HBsAg across the time course for each treatment series. Statistical significance as determined using Student's t test. Data are presented as mean standard deviations (SD), **P<0.005, and ns=non-significant.
ETV is a nucleoside analog that prevents the viral reverse transcription and replication of new synthesized HBV DNAs, thereby preventing the replenishment of cccDNA by de novo formation. ETV was applied to HBV-infected cultures at a 100-fold IC50 (Langley, D. R., et al. (2007). Inhibition of Hepatitis B Virus Polymerase by Entecavir. Journal of virology 81, 3992-4001) thereby allowing for the measurement of cccDNA half-life under conditions in which levels are sustained only from the initial cccDNA pool. Cells were then harvested over a treatment time course, and DNA extracts were analyzed by Southern blot and qPCR assay. […] J Hepatol 69, 1231-1241). […] Enhanced cccDNA decay kinetics by F7 treatment was also confirmed by RT-PCR analysis (FIG. 5D). […] Thus, F7 and poly-U/UC PAMP impart the therapeutic decay of established cccDNA.
Reverse transcription quantitative real time qPCR (RT-qPCR) analysis: Total cellular RNAs were extracted from cells using TRIZOL reagent and the manufacturers protocol (Invitrogen). cDNA was synthesized from the purified RNA by both random and oligo (dT) priming using iScript select cDNA synthesis kit (Biorad, Inc.). For HBV cccDNA expression analysis, total DNA was extracted using the DNeasy kit (QIAGEN). For selective cccDNA PCR analysis, isolated DNAs were treated with 10 Units of T5 exonuclease (NEB) for 30 min in 10 μl of reaction volume in 37° C., followed by heat-inactivation at 95° C. for 5 min and 4-fold dilution with Nuclease-free water. For extra-cellular HBV DNA quantification, an external HBV plasmid standard was used to program the PCR (Ko, C., et al. (2018), supra).

Molecule	PF-RC DNA in subcellular fractions, Southern blot (HBV cccDNA [1])	cccDNA accumulation, Southern blot (HBV cccDNA [1])	production and secretion of HBsAg (HBV cccDNA [2])	cccDNA levels over treatment time course (Southern blot, qPCR) (HBV cccDNA [2])	delay before cccDNA starts decreasing (τ) (HBV cccDNA [2]) [days]	half-life of cccDNA (t1/2) (HBV cccDNA [2]) [h]
O=C(Nc1ccc2nc(NC(=O)c3ccc4ccccc4c3)sc2c1)c1ccccc1 [F7, N-(6-benzamido-1,3-benzothiazol-2-yl)naphthalene-2-carboxamide]	accumulation was reduced after 2-3 dpi	delayed and reduced	suppressed HBsAg secretion	stimulated the decay of cccDNA	4.0	209
B1	Nuclear PF-RC DNA levels were reduced	reduction of cccDNA	suppressed HBsAg secretion	reduced the cccDNA abundance	3.8	185
